From publication PMC6207618, “The GbsR Family of Transcriptional Regulators: Functional Characterization of the OpuAR Repressor” (Frontiers in Microbiology, 2018)

Key:
[1] = test system: opuAA-treA reporter activity; assay: opuAA-treA reporter fusion TreA enzyme activity assay; type: cell-based, Bacillus subtilis; conditions: strain STHB10 (OpuAR+), SMM with 1.2 M NaCl, 1 mM compatible solute
Source text: opuAAB.infantis′-treA reporter gene fusions were constructed using primers opuAR treA Frag1/2 rev and either opuAR treA Frag1/4 for (Supplementary Table S2) to amplify a 1940-bp DNA fragment from chromosomal DNA of B. infantis NRRL B-14911, including the predicted opuA promoter region and the coding region of opuAR, or primer opuAR treA Frag2 for, to generate a fragment lacking the opuAR gene. PCR products, which had been cut with BamHI and SmaI, were cloned into the vector pJMB1 ([Hoffmann et al., 2013]). This vector carries a promoterless treA gene, whose gene product [phospho-α-(1,1)-glucosidase] can be assayed and photometrically quantitated with the chromogenic substrate α-PNPG ([Gotsche and Dahl, 1995]). The plasmids resulting for the construction of the treA transcriptional reporter gene fusions were named pSTH33 (opuAR^+/opuAAB.i-treA) and pSTH34 (opuAR^-/opuAAB.i-treA) (Supplementary Table S3). All treA reporter gene fusions were stably integrated as a single copy into the chromosome of various B. subtilis strains at the amyE gene; all of these strains carry a gene disruption mutation of the native chromosomal treA gene of B. subtilis to allow the assignment of the measured TreA enzyme activity to the reporter gene constructs (Supplementary Table S1).
Aliquots (1.5 ml) from cultures of B. subtilis strains carrying chromosomal opuAAB.i′-treA reporter operon gene fusions (Supplementary Table S1) were used to monitor the expression levels by assaying the TreA reporter enzyme activity as described previously using the chromogenic substrate α-PNPG ([Gotsche and Dahl, 1995]). The TreA-specific activity is expressed in units per milligram of protein. Protein concentrations were estimated from the optical density of the cell culture harboring the treA reporter operon gene fusion ([Miller, 1972]).
FIGURE 6 Influence of the B. subtilis GbsR-like regulators on the expression of opuA from B. infantis and its transcriptional response to the presence of compatible solutes. (A) Genetic structure of the opuAA-treA transcriptional reporter fusions. (B) The opuAA-treA reporter gene fusions, either including or lacking the B. infantis opuAR gene, were integrated into the chromosome of the B. subtilis strain STHB05; it carries gene disruption mutations of all three GbsR-like regulators, resulting in strains STHB10 (OpuAR^+) and STHB11 (OpuAR^-). […] The opuAA-treA reporter strains were grown in SMM to early exponential growth phase (OD578 1–1.5) and then assayed for TreA reporter enzyme activity. The shown data represent four independent biological replicates and each culture was assayed twice. (C) Strain STHB10 (opuAR^+/opuAA-treA) was grown in SMM with increasing NaCl concentrations until each of these cultures reached mid-exponential growth phase (OD578 of about 1.5) and were then harvested for TreA reporter enzyme activity assays. The given data are the means and standard deviations of four independent biological replicates and each culture was assayed twice. (D) Expression of the opuAA-treA reporter gene construct in response to extracellular provided compatible solutes. The opuAA-treA reporter fusion strains STHB10 (OpuAR^+) and STHB11 (OpuAR^-) were cultivated in SMM containing 1.2 M NaCl either in the absence or presence of 1 mM of the indicated compatible solutes. The opuAA-treA reporter fusion strains were grown to early exponential growth phase (OD578 1–1.5) and then assayed for TreA reporter enzyme activity. The given data are the means and standard deviations of four independent biological replicates and each culture was assayed twice.
To identify possible effector molecules for the B. infantis OpuAR protein, we conducted a series of in vivo experiments in which we assessed any possible inducing effects of compatible solutes on opuAA-treA transcriptional activity in an OpuAR-dependent fashion (Figure 6D).

[2] = biological target: B. infantis OpuAR protein (OpuAR-Strep-tag II recombinant protein) (Bacillus infantis NRRL B-14911); assay: SEC; HiLoad 16/600 Superdex 200 pg; 2 ml of affinity-purified OpuAR (1.5 mg/ml) loaded straight after purification; 100 mM KPP (pH 8), 300 mM NaCl; column standardised with thyroglobulin, albumin, ovalbumin and cytochrome C

stoichiometry N [2]	Compound	Induction of opuAA-treA reporter activity (OpuAR-dependent) [1]
	C[N+](C)(C)CCOS(=O)(=O)[O-] [choline-O-sulfate]	did not serve as inducers
2	B. infantis OpuAR protein (OpuAR-Strep-tag II recombinant protein) (natural protein)	
	CC1=NCC[C@@H](C(=O)O)N1 [ectoine]	did not serve as inducers
